Source: US12606552B2, “Bifunctional compound, preparation method therefor, and use thereof” (SUZHOU KINTOR PHARMACEUTICALS, INC., priority 2020, dated 2026)

How the values were obtained:
[1] = Pharmacokinetic studies of compounds in mice; assay type: in vivo; settings: male mice, intragastric administration 10 mg/kg, plasma
Method: Activity Assay Example 3: Pharmacokinetic Studies of Compounds in Mice
In this test, 3 male mice were selected and divided into 1 group, 3 mice/group. All animals were fasted overnight before administration.
The intragastric administration dose was 10 mg/kg, and the administration volume was 10 mL/kg.
2.2 Preparation of Drug Solution
According to the animal body weight combined with the administration dose, the amount of the required drug solution was calculated. An appropriate amount of the test substance was weighed, added with 5% of the final volume of ethanol for dissolution, then added with 5% of the final volume of SolutolHS15, and finally added with PBS to the final volume, and mixed by vortex and fully dissolved to obtain a solution for intragastric administration (1 mg/mL). All solutions were prepared for immediate use.
2.3 Method of Administration
Before administration, the drug solution was placed on a magnetic stirrer in the animal laboratory and stirred for at least 10 min. During the administration process, vortex was continued to ensure uniformity of the drug solution. The theoretical volume of gavage administration was 10 mL/kg, which was administered with a syringe equipped with a gavage needle.
Before administration, the animals were weighed and the body weight of the animals involved in the experiment was recorded, and the administration volume of each animal was calculated according to the body weight. After administration, animals were promptly transferred back to the experimental cages to collect samples.
2.4 Observation of Animal Status
After administration, whether animals had abnormal reactions was observed immediately. If there were no abnormal reactions, animals were observed twice a day during the experiment. If abnormal reactions were found, they should be recorded in time, and the number of observations should be increased until the animals returned to normal or to the end of the experiment.
2.5 Sample Collection and Preservation
All experimental animals were fasted overnight before administration, and blood was collected at corresponding time points into blood collection tubes containing heparin sodium anticoagulant. After the whole blood was collected, the blood collection tube was gently shaken and placed on ice immediately, and then centrifuged (4° C., 4000 rpm, 10 min) to collect supernatant plasma samples, which were stored in a refrigerator at −80° C. before analysis.
2.6 Plasma Sample Processing and Analysis
The collected plasma samples were handed over to the Pharmacokinetic department for sample extraction, and the test substances in the plasma were extracted by protein precipitation method using organic reagents containing internal standards (acetonitrile:plasma=4:1, v/v). The extracted processed samples were submitted for quantitative concentration analysis by LC-MS/MS. According to the plasma concentration of each animal obtained by the analysis, software Kinetica (version 5.0) was used to calculate the main pharmacokinetic parameter eAUC30-120 according to the non-compartment model to evaluate the exposure amount; the test results are shown in Table 2: […]

AR = target: T1, AR (Homo sapiens, UniProt P10275, T878A); test: Effects of compounds on AR expression in LNCaP cells (ELISA, DC50); assay type: cell-based; parameters: Measurement of the Effects of Drugs on the Expression of AR in Cells by ELISA Method; endogenous in cells; host or cells: LNCaP; settings: 24 hours of drug treatment, AR by ELISA
T1 sequence (P10275 1-920 T878A): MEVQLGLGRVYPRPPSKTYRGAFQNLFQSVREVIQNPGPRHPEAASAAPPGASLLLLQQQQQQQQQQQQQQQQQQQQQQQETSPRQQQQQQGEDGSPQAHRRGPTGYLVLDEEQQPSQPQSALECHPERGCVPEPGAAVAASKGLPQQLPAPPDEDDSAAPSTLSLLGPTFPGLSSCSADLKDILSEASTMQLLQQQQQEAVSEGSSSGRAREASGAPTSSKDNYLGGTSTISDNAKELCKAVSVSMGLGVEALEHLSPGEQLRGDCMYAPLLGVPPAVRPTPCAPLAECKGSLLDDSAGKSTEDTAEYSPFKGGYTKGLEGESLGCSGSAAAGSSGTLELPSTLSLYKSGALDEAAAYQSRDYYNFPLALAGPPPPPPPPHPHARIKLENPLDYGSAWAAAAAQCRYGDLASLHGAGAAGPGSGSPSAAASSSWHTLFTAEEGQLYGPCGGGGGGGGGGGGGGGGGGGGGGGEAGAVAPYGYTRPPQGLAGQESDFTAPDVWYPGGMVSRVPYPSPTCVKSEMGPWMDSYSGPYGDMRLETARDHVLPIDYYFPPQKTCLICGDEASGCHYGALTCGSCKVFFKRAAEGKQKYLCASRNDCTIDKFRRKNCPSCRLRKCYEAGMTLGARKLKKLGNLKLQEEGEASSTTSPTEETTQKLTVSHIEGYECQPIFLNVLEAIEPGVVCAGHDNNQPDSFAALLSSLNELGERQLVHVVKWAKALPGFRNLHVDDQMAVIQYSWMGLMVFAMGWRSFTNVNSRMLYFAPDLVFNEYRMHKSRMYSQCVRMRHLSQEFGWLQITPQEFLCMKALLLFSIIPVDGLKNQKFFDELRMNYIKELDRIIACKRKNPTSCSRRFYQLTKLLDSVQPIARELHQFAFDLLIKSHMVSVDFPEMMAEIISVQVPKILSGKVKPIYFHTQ
In short: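 LNCaP cells at about 15,000/well were treated for 24 h with compound at 0.0001–2 μmol/L final. AR in cell lysates was measured by ELISA (OD450). Inhibition was relative to DMSO control after blank subtraction, and DC50 was calculated from it.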

## Cc1ncsc1-c1ccc(CNC(=O)[C@@H]2C[C@@H](O)CN2C(=O)[C@@H](NC(=O)COCCOCCOc2c(F)cc(-c3ncc(N4C(=S)N(c5ccc(C#N)c(C(F)(F)F)c5F)C(=O)C4(C)C)cc3F)cc2F)C(C)(C)C)cc1 [Compound A99]
[1]
  eAUC0.5-2 h: 308 ± 288 ng·h/mL
AR
  DC50: 23.2 nM

## Cc1ncsc1-c1ccc([C@H](C)NC(=O)[C@@H]2C[C@@H](O)CN2C(=O)[C@@H](NC(=O)COCCCCOc2ccc(-c3ncc(N4C(=S)N(c5ccc(C#N)c(C(F)(F)F)c5F)C(=O)C4(C)C)cc3C(F)(F)F)cc2F)C(C)(C)C)cc1 [Compound A108]
[1]
  eAUC0.5-2 h: 993 ± 201 ng·h/mL
AR
  DC50: 136 nM

## Cc1ncsc1-c1ccc(CNC(=O)[C@@H]2C[C@@H](O)CN2C(=O)[C@@H](NC(=O)COCCCCOc2ccc(-c3ncc(N4C(=S)N(c5ccc(C#N)c(C(F)(F)F)c5F)C(=O)C4(C)C)cn3)cc2F)C(C)(C)C)cc1 [Compound A111]
[1]
  eAUC0.5-2 h: 297 ± 78 ng·h/mL
AR
  DC50: 46.2 nM

## Cc1ncsc1-c1ccc(CNC(=O)[C@@H]2C[C@@H](O)CN2C(=O)[C@@H](NC(=O)[C@H]2CC[C@H](CNC(=O)c3ccc(-c4ccc(N5C(=S)N(c6ccc(C#N)c(C(F)(F)F)c6F)C(=O)C5(C)C)cn4)cc3F)CC2)C(C)(C)C)cc1 [Compound A105]
[1]
  eAUC0.5-2 h: 379 ± 300 ng·h/mL
AR
  DC50: 188 nM

## Cc1ncsc1-c1ccc(CNC(=O)[C@@H]2C[C@@H](O)CN2C(=O)[C@@H](NC(=O)COCCCOc2ccc(-c3ccc(N4C(=S)N(c5ccc(C#N)c(C(F)(F)F)c5F)C(=O)C4(C)C)cn3)cc2F)C(C)(C)C)cc1 [Compound A72]
[1]
  eAUC0.5-2 h: 240 ± 68 ng·h/mL
AR
  DC50: 35.1 nM

## Cc1ncsc1-c1ccc(CNC(=O)[C@@H]2C[C@@H](O)CN2C(=O)[C@@H](NC(=O)COCCOCCOc2ccc(-c3ncc(N4C(=S)N(c5ccc(C#N)c(C(F)(F)F)c5F)C(=O)C4(C)C)cc3F)cc2F)C(C)(C)C)cc1 [Compound A90]
[1]
  eAUC0.5-2 h: 96 ± 28.51 ng·h/mL
AR
  DC50: 36.4 nM

## Cc1ncsc1-c1ccc([C@H](C)NC(=O)[C@@H]2C[C@@H](O)CN2C(=O)[C@@H](NC(=O)COCCCCOc2ccc(-c3ccc(N4C(=S)N(c5ccc(C#N)c(C(F)(F)F)c5F)C(=O)C4(C)C)cn3)cn2)C(C)(C)C)cc1 [Compound A126]
[1]
  eAUC0.5-2 h: 1110 ± 158 ng·h/mL
AR
  DC50: 55 nM

## Cc1ncsc1-c1ccc(CNC(=O)[C@@H]2C[C@@H](O)CN2C(=O)[C@@H](NC(=O)COCCCCOc2ccc(-c3ccc(N4C(=S)N(c5ccc(C#N)c(C(F)(F)F)c5F)C(=O)C4(C)C)cn3)cn2)C(C)(C)C)cc1 [Compound A100]
[1]
  eAUC0.5-2 h: 720 ± 206 ng·h/mL
AR
  DC50: 18.9 nM

## Cc1ncsc1-c1ccc([C@H](C)NC(=O)[C@@H]2C[C@@H](O)CN2C(=O)[C@@H](NC(=O)COCCOc2ccc(-c3ncc(N4C(=S)N(c5ccc(C#N)c(C(F)(F)F)c5F)C(=O)C4(C)C)cc3F)cc2F)C(C)(C)C)cc1 [Compound A123]
[1]
  eAUC0.5-2 h: 287 ± 146 ng·h/mL
AR
  DC50: 61.3 nM

## Cc1ncsc1-c1ccc(CNC(=O)[C@@H]2C[C@@H](O)CN2C(=O)[C@@H](NC(=O)COCCCCCOc2c(F)cc(-c3ncc(N4C(=S)N(c5ccc(C#N)c(C(F)(F)F)c5F)C(=O)C4(C)C)cc3F)cc2F)C(C)(C)C)cc1 [Compound A97]
[1]
  eAUC0.5-2 h: 1690 ± 158 ng·h/mL
AR
  DC50: 98.4 nM

## Cc1ncsc1-c1ccc(CNC(=O)[C@@H]2C[C@@H](O)CN2C(=O)[C@@H](NC(=O)COCCCCOc2c(F)cc(-c3ncc(N4C(=S)N(c5ccc(C#N)c(C(F)(F)F)c5F)C(=O)C4(C)C)cc3F)cc2F)C(C)(C)C)cc1 [Compound A77]
[1]
  eAUC0.5-2 h: 1354 ± 205 ng·h/mL
AR
  DC50: 114 nM

## Cc1ncsc1-c1ccc(CNC(=O)[C@@H]2C[C@@H](O)CN2C(=O)[C@@H](NC(=O)COCCCCOc2ccc(-c3ccc(N4C(=S)N(c5ccc(C#N)c(C(F)(F)F)c5F)C(=O)C4(C)C)cn3)cc2C(F)(F)F)C(C)(C)C)cc1 [Compound A84]
[1]
  eAUC0.5-2 h: 774 ± 119 ng·h/mL
AR
  DC50: 140 nM

## Cc1ncsc1-c1ccc(CNC(=O)[C@@H]2C[C@@H](O)CN2C(=O)[C@@H](NC(=O)COCCOCCOc2ccc(-c3ccc(N4C(=S)N(c5ccc(C#N)c(C(F)(F)F)c5F)C(=O)C4(C)C)cn3)cc2F)C(C)(C)C)cc1 [Compound A85]
[1]
  eAUC0.5-2 h: 70 ± 23 ng·h/mL
AR
  DC50: 33 nM

## Cc1ncsc1-c1ccc(CNC(=O)[C@@H]2C[C@@H](O)CN2C(=O)[C@@H](NC(=O)COCCCCCOc2ccc(-c3ncc(N4C(=S)N(c5ccc(C#N)c(C(F)(F)F)c5F)C(=O)C4(C)C)cc3F)cc2F)C(C)(C)C)cc1 [Compound A89]
[1]
  eAUC0.5-2 h: 501 ± 103.57 ng·h/mL
AR
  DC50: 72 nM

## Cc1ncsc1-c1ccc(CNC(=O)[C@@H]2C[C@@H](O)CN2C(=O)[C@@H](NC(=O)COCCCCOc2c(F)cc(-c3ccc(N4C(=S)N(c5ccc(C#N)c(C(F)(F)F)c5F)C(=O)C4(C)C)cn3)cc2F)C(C)(C)C)cc1 [Compound A103]
[1]
  eAUC0.5-2 h: 984 ± 617 ng·h/mL
AR
  DC50: 152 nM

## CC1(C)C(=O)N(c2ccc(C#N)c(C(F)(F)F)c2F)C(=S)N1c1ccc(-c2ccc(OCCNC(=O)COc3cccc4c3C(=O)N(C3CCC(=O)NC3=O)C4=O)c(F)c2)nc1 (stereo not drawn) [Compound A35]
[1]
  eAUC0.5-2 h: 71 ± 51 ng·h/mL
AR
  DC50: 117 nM

## Cc1ncsc1-c1ccc(CNC(=O)[C@@H]2C[C@@H](O)CN2C(=O)[C@@H](NC(=O)COCCCCOc2ccc(-c3ncc(N4C(=S)N(c5ccc(C#N)c(C(F)(F)F)c5F)C(=O)C4(C)C)cc3C(F)(F)F)cc2)C(C)(C)C)cc1 [Compound A62]
[1]
  eAUC0.5-2 h: 498 ± 124 ng·h/mL
AR
  DC50: 80 nM

## Cc1ncsc1-c1ccc(CNC(=O)[C@@H]2C[C@@H](O)CN2C(=O)[C@@H](NC(=O)COCCCCOc2ccc(-c3ccc(N4C(=S)N(c5ccc(C#N)c(C(F)(F)F)c5F)C(=O)C4(C)C)cn3)cc2Cl)C(C)(C)C)cc1 [Compound A83]
[1]
  eAUC0.5-2 h: 574 ± 176 ng·h/mL
AR
  DC50: 87.8 nM

## CC1(C)C(=O)N(c2ccc(C#N)c(C(F)(F)F)c2F)C(=S)N1c1ccc(-c2ccc(OC3CCN(C(=O)COc4cccc5c4C(=O)N(C4CCC(=O)NC4=O)C5=O)CC3)cc2)nc1 (stereo not drawn) [Compound A37]
[1]
  eAUC0.5-2 h: 98 ± 48 ng·h/mL
AR
  DC50: 18.6 nM

## Cc1ncsc1-c1ccc(CNC(=O)[C@@H]2C[C@@H](O)CN2C(=O)[C@@H](NC(=O)COCCOCCOc2ccc(-c3ncc(N4C(=S)N(c5ccc(C#N)c(C(F)(F)F)c5F)C(=O)C4(C)C)cc3C(F)(F)F)cc2)C(C)(C)C)cc1 [Compound A93]
[1]
  eAUC0.5-2 h: 275 ± 116 ng·h/mL
AR
  DC50: 51.1 nM

## Cc1ncsc1-c1ccc([C@H](C)NC(=O)[C@@H]2C[C@@H](O)CN2C(=O)[C@@H](NC(=O)COCCCCOc2c(F)cc(-c3ncc(N4C(=S)N(c5ccc(C#N)c(C(F)(F)F)c5F)C(=O)C4(C)C)cc3F)cc2F)C(C)(C)C)cc1 [Compound A124]
[1]
  eAUC0.5-2 h: 2776 ± 292 ng·h/mL
AR
  DC50: 188 nM
